With `CC(=O)N1Cc2c(-c3nc(C4CC4)no3)ncn2-c2ccccc21` the melting point was 202 °C.
In the case of `Cc1c(C=NO)c2ccccc2n1-c1ccc(OCc2ccccc2)cc1`, the melting point is reported as 171 to 173 °C.
Work on `CCOC(=O)c1cccc2nc(C(C)C)n(Cc3ccc(-c4ccccc4-c4nnn[nH]4)cc3)c12` yielded a melting point of 144 to 146 °C.
With `O=C(O)CCSc1cccs1` the melting point was 110 to 112 °C.
For `O=C(O)C(CBr)(CBr)COCC(CBr)(CBr)C(=O)O`, the melting point was 189 to 193 °C.
With `CNC(=O)N(N=Cc1ccccc1)c1nnc(C(C)(C)C)s1` the melting point was 115 to 116 °C.
`CCC(C)(C)N=C(NC#N)Nc1cc(F)cc(Cl)c1` gave a melting point of 130 to 131 °C.
`COC(=O)c1ccc(CN(Cc2cc(Br)ccc2OCc2ccccc2)c2ccc(C(=O)OC(C)(C)C)cc2)cc1` showed a melting point of 154 to 155 °C.
Work on `BrC(c1ccccc1)c1ccc2ccccc2c1` (centres undefined) yielded a melting point of 89 to 90 °C.
`COC(=O)Cc1cccc(CCN(C)CCCC(C#N)(c2ccc(OC)c(OC)c2)C(C)C)c1` (centres undefined) gave a melting point of 77 to 82 °C.
For `CC(C)NC(=O)c1c(I)cccc1C(=O)Nc1ccc(OCC(F)(F)F)nc1`, the melting point was 220 to 225 °C.
For `Cc1cc(C)n(-c2ncc(Br)c(Nc3ccc(Cl)cc3)n2)n1`, the melting point was 144 to 154 °C.
`CC(=O)NCc1cncn1C1c2ccccc2CCC1(C)C` (centres undefined) gave a melting point of 166 °C.
Work on `CC1(C)C=C(c2ccccn2)c2cc(Cl)cc(Cl)c2OC1` yielded a melting point of 124 °C.
For `Cc1oc(-c2ccccc2)nc1COc1ccc(C(=O)c2ccc(O)cc2OCC(=O)O)cc1`, the melting point was 229 to 230 °C.
With `CCCN(CCCc1coc2c(OC)cccc12)C1COc2c(F)ccc(C(N)=O)c2C1` (centres undefined) the melting point was 123 to 129 °C.
For `CCCc1ccc(NC(=O)c2cccnc2NCc2ccc(=O)[nH]c2)cc1C(F)(F)F`, the melting point was 220 to 224 °C.
With `CCO/C(=C\c1ccsc1)C(=O)O` the melting point was 88 to 89 °C.
For `C=C(C)c1cccc(C(C)(C)N=C=O)c1`, the melting point was 60 to 62 °C.
With `CC(C)c1ccc(C2c3cc(N(C)C(=O)CC(C)(C)C)ccc3OC2(C)C)cc1` (centres undefined) the melting point was 78 to 79 °C.
`CCOC(=O)CC(=O)c1c(F)cc(Br)cc1F` showed a melting point of 49 to 52 °C.
Work on `COc1ccc(-c2nc3scc(-c4cc(C(C)(C)C)c(O)c(C(C)(C)C)c4)n3c2-c2ccc(OC)cc2)cc1` yielded a melting point of 236 to 237 °C.
`Cc1cc(Nc2ccnc(Nc3ccc(S(=O)(=O)N(CCNC(=O)OC(C)(C)C)C4CCN(C(=O)OC(C)(C)C)CC4)cc3)n2)ccc1F` showed a melting point of 242 to 244 °C.
With `C1CNCCNCCCNCCNCCNC1` the melting point was 49 to 51 °C.
In the case of `COc1ccc(C(=Cc2cc3c(cc2[N+](=O)[O-])OCO3)C(=O)O)cc1`, the melting point is reported as 184 to 185 °C.
With `CCOC(=O)C1=Cc2cc(C=O)ccc2OC1C(F)(F)F` (centres undefined) the melting point was 84.3 to 86.2 °C.
In the case of `Cc1c(CC=CCCC(=O)O)cccc1C(=O)c1ccc(Cl)cc1`, the melting point is reported as 73 °C.
Molecule `O=C(O)/C(=C/C1CCCCC1)c1ccc(F)c(F)c1` has a melting point of 119 to 121 °C.
For `Oc1ccc(Nc2nc(NCc3ccco3)nc(Nc3ccc(Br)cc3)n2)cc1`, the melting point was 37 to 39 °C.
With `Cc1cc2c(s1)Nc1ccccc1N=C2N1CCN[C@@H](CO)C1` the melting point was 90 °C.
In the case of `Cc1cc2c(-c3ccccc3Cl)c(NC(=O)Nc3ccc(Cl)cc3)c(=O)n(C)c2cc1C`, the melting point is reported as 207 to 209 °C.
In the case of `O=C(O)CCNC(=O)C1=C(C(=O)Nc2ccc(Cl)cc2F)CCCC1`, the melting point is reported as 158 to 159 °C.
In the case of `CCc1cccc2c1N(CC(=O)N1CC3CCC(CC3)C1)C(=O)C(NC(=O)Nc1cccc(C)c1)N=C2c1ccccc1F` (centres undefined), the melting point is reported as 163 to 168 °C.
`O=C(CC1(c2ccccc2)CCCC1)C(=O)Nc1ccc2c(c1)COC2=O` gave a melting point of 140 to 144 °C.
`Cn1c(C(F)(F)F)nn(-c2ccc(Cl)c(C(=O)O)c2)c1=O` showed a melting point of 223 °C.
For `CC(=O)CCCCCCC(=O)c1ccc(OCc2ccccc2)c(OCc2ccccc2)c1`, the melting point was 64 to 66 °C.
With `CCOC(=O)NN(CCO)c1ccc(-c2ccc(Cl)cc2)nn1` the melting point was 152 to 154 °C.
`CN(Cc1cc[nH]n1)C1CCCN(C(=O)c2ccc(Nc3nccc(Nc4ccc(F)cc4)n3)cc2)C1` (centres undefined) gave a melting point of 120 to 140 °C.
For `C#CCCOc1ccc(C=O)cc1OC`, the melting point was 101 to 102 °C.
`COC(=O)c1ccc(Cl)cc1C1(c2ccccc2F)OCC(CCl)O1` (centres undefined) showed a melting point of 117 to 122 °C.
For `O=c1[nH]c2ccccc2n1CCN1CCN(C(c2ccccc2)c2ccccc2)CC1`, the melting point was 218 °C.
For `O=S(=O)(NCc1cccnc1)c1ccc(Br)s1`, the melting point was 125 °C.
`COc1ccc(CCc2nnc(-c3ccc4occc4c3)o2)cc1` gave a melting point of 127 to 128 °C.
`Cc1cccc(-c2nc(CCOc3ccc(C=CC=C4OC(=O)NC4=O)cc3)c(C)o2)c1` showed a melting point of 213 to 214 °C.
`CCOC(=O)Cc1ccc(-c2nc(COc3ccc(COc4nn(-c5ccccc5)cc4/C=C/c4cn(CC)cn4)cc3OC)c(C)o2)cc1` showed a melting point of 140 to 141 °C.
With `CC(C(=O)O)c1cc(=O)n(Cc2ccc(Cl)cc2)c2ccc(Cl)cc12` (centres undefined) the melting point was 192 to 194 °C.
Work on `CCOC(=O)C1(Cc2ccc(OC)c(OC)c2)C(=S)NCC1c1ccc(OC)c(OC)c1` (centres undefined) yielded a melting point of 166 to 169 °C.
With `COc1ccc(CN2CCC(N=C(NC#N)N3CCc4ccccc4C3)CC2)cc1` the melting point was 135 to 137 °C.
Molecule `CCC1(CO)CCCN2CCC3=c4ccccc4=NC3=C21` (centres undefined) has a melting point of 111 to 113 °C.
In the case of `CS(=O)(=O)N1CC1COc1ccc(C#N)cc1` (centres undefined), the melting point is reported as 79 to 81 °C.
`CCSc1nc2nsc(N)c2s1` showed a melting point of 131 to 134 °C.
For `CC1(C)C(=O)C(C)(C)c2cc3[nH]c(S)nc3cc21`, the melting point was > 300 °C.
Molecule `Cc1noc(NC(=O)N2CCN(c3nc(-c4cccc(C(F)(F)F)c4)cs3)CC2)c1C` has a melting point of 230 to 231 °C.
Molecule `COc1cc(C2c3cc4c(cc3C(NC3=CC(=O)N(Cc5ccc(NC(C)=O)cc5)C3=O)C3COC(=O)C23)OCO4)cc(OC)c1O[Si](C)(C)C(C)(C)C` (centres undefined) has a melting point of 177 to 179 °C.
Work on `O=C(O)c1c(Oc2ccccc2)cccc1Oc1ccccc1` yielded a melting point of 164 to 165 °C.
Molecule `COCC(COC)(CN(C)CCP(C)(C)=S)SCc1ccccc1` has a melting point of 74 °C.
`COC(=O)c1cc(CCC(=O)NCc2ccccc2)ccc1O` gave a melting point of 139 to 140 °C.
Molecule `C[C@@H](O)c1cc2ccoc2cn1` has a melting point of 59.5 to 60.5 °C.
For `O=C1NN(C(=O)c2ccccc2NCc2ccccc2)Cc2ccccc21`, the melting point was 206 to 208 °C.
`CC1CCCC(C)N1Cc1ccc(NC(=O)C#Cc2ccc(-c3ccc(Cl)cc3)cc2)cc1` (centres undefined) gave a melting point of 158 to 163 °C.
For `Cc1ccc(S(=O)(=O)NC(=O)C(C)c2ccc3cc(OCc4ccc5ccccc5n4)ccc3c2)cc1` (centres undefined), the melting point was 201 to 205 °C.
In the case of `N#Cn1c(SCC(=O)N2CCCc3ccccc32)nc2ccccc21`, the melting point is reported as 153 to 154 °C.
Work on `CCN1C(=O)C(NC(=O)C(F)(F)F)CCc2c1ccc(Nc1ncc(Cl)c(Nc3ccccc3S(=O)(=O)C(C)C)n1)c2OC` (centres undefined) yielded a melting point of 245 to 247 °C.
With `CC(=O)OCC1OC(n2c(=O)sc3c(Cl)nc(Cl)nc32)C(OC(C)=O)C1OC(C)=O` (centres undefined) the melting point was 125 to 126 °C.
For `CCCCCCNc1cc(-c2nc(=O)c3ccccc3s2)ccn1`, the melting point was 134 to 135 °C.
With `O=C(O)C1Oc2cc(Cl)c(S(=O)(=O)c3cccc(Cl)c3)cc2O1` (centres undefined) the melting point was 151 to 153 °C.
Work on `NC(=O)OC(=O)C(Cl)(Cl)Cl` yielded a melting point of 183 to 184 °C.
Molecule `C(=Nn1ccnc1)c1ccccc1` has a melting point of 115 °C.
With `O=c1[nH]c2occc2c2ccccc12` the melting point was 216 to 218 °C.
`CCCCCCCNC(=O)CCCCO` gave a melting point of 53 to 54 °C.
In the case of `COc1ccc(-n2c(=O)c3c(N4CCN(C)CC4)cc(Cl)cc3n(Cc3ccccc3)c2=O)cc1`, the melting point is reported as 155 to 158 °C.
In the case of `CNc1nc(NC)nc(-c2ccc(-c3ccccc3)cc2)n1`, the melting point is reported as 198 to 200 °C.
Work on `O=C1N(Cc2ncccn2)c2ccccc2C12COc1cc3c(cc12)CCO3` (centres undefined) yielded a melting point of 203 to 205 °C.
With `CCNCC1CN(c2c(F)cc3c(=O)c(C(=O)O)cn(C4CC4)c3c2Cl)CC1C` (centres undefined) the melting point was 254 to 257 °C.
`O=C(O)C(CN1C(=O)CNC1=O)CS(=O)(=O)c1ccc(-c2ccc(Cl)cc2)cc1` (centres undefined) showed a melting point of 188 to 190 °C.
With `Cc1ccc2nc(-c3ccc(C#N)cc3)c(CNC(=O)CC(C)C)n2c1` the melting point was 231 to 233 °C.
`Nc1ccc2c(c1)COc1cc(Nc3ccc(F)cc3F)ccc1C2=O` gave a melting point of 184 to 193 °C.
In the case of `O=C(O)C(=O)CC(=O)c1cccn1Cc1cc(F)ccc1F`, the melting point is reported as 142 to 146 °C.
Work on `N=C(Nc1ccc(F)cc1)Nc1nc(-c2ccccc2)cs1` yielded a melting point of 156 to 158 °C.
Molecule `CCOC(=O)C=Cc1cncc(OCc2ccccc2)c1` has a melting point of 76 to 77 °C.
Molecule `CN1C(=O)CC[C@]2(C)c3ccc(-c4ccccc4F)cc3CC[C@@H]12` has a melting point of 142 to 150 °C.
Molecule `Cc1c(F)ccc([N+](=O)[O-])c1Cl` has a melting point of 37 to 39 °C.
With `Cc1cc(-n2cncn2)c2cc(Cl)cc(Cl)c2n1` the melting point was 220 to 222 °C.
Work on `O=C1CCCCC1C(C[N+](=O)[O-])c1ccc(Cl)cc1` (racemic) yielded a melting point of 96 to 97 °C.
`CCc1c(-c2ccc(OC)cc2)c2c(C(=O)O)c(C(=O)O)c3cc(OC)cc1n32` showed a melting point of 209 to 211 °C.
In the case of `CCCCCCCCCCCCCCCCCC(=O)OCCN1C(C)(C)CCCC1(C)C`, the melting point is reported as 30 °C.
`O=C(O)CCCCCC1=CCCC1=O` showed a melting point of 70 to 72 °C.
For `CCCCCCc1oc(C=Cc2ccccc2)nc1C(=O)O`, the melting point was 133 to 134 °C.
Molecule `Nc1ncnc2c1c(-c1ccc(Oc3ccccc3)cc1)nn2C1CCC(=O)CC1` has a melting point of 203 to 205 °C.
`Cn1nnnc1-c1ccc2oc3ncccc3c(=O)c2c1` gave a melting point of 248 °C.
`Cc1nc2cc(CCCN3C(=O)c4ccccc4C3=O)ccc2s1` gave a melting point of 126 °C.
Molecule `Nc1ccccc1Oc1ccc2c(c1)OCC(=O)N2` has a melting point of 149 to 150 °C.
For `COc1ccc2c(c1)c(-c1cc3c(C(=O)NC(C)(C)CO)ccnc3[nH]1)cn2C`, the melting point was 210 to 212 °C.
Molecule `CC1=Cc2ccc(Cl)cc2C(c2ccc([N+](=O)[O-])c(C)c2)=NN1C(=O)Oc1ccccc1` has a melting point of 188 to 190 °C.
For `CC(C)C(=O)NCCCCn1c(CO)nc2c(N)nc3ccccc3c21`, the melting point was 222 to 224 °C.
`CCOC(=O)C1Cn2c(nc3c(cnn3C)c2=O)S1` (centres undefined) showed a melting point of 159 °C.
Molecule `COc1ccc(-c2nc(Cl)cc(Cl)n2)cc1` has a melting point of 127 to 128 °C.
`CCCCCCCCNC(=O)Nc1ccccc1C(=O)NC1CCN(C(c2ccccc2)c2ccccc2)CC1` showed a melting point of 149 to 151 °C.
Molecule `O=C(NC(=O)c1cc(F)c(Cl)nc1Cl)NC1CC1` has a melting point of 171 to 173 °C.

Reference: a melting point compilation (Tetko et al.; mined from patent text by program, amines drawn as free bases though some values may be those of a salt)
